Laboratory results taken from PubChem BioAssay (NCI).
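1) Cells in 96-well plates. 2) Compound, 48 h, 5 concentrations. 3) Linear interpolation between surrounding doses. 4) Unreached endpoint = highest concentration. GI50 is the concentration that inhibits growth by half. TGI: total growth inhibition.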

Experiments:
Experiment in all cases: growth of human tumour cells (NCI), 48 h
[1] = system: MCF7 breast
[2] = system: CCRF-CEM leukemia
[3] = system: HOP-92 NSCLC
[4] = system: TK-10 renal
[5] = system: HL-60(TB) leukemia
[6] = system: HCC-2998 colon
[7] = system: MDA-MB-435
[8] = system: HS 578T breast
[9] = system: MOLT-4 leukemia
[10] = system: KM12 colon
[11] = system: U251 CNS
[12] = system: MDA-MB-231 breast
[13] = system: NCI-H460 lung
[14] = system: HT29 colon
[15] = system: SN12C renal
[16] = system: OVCAR-5 ovarian
[17] = system: EKVX NSCLC
[18] = system: UACC-257 melanoma
[19] = system: BT-549 breast
[20] = system: SNB-75 CNS
[21] = system: SK-MEL-28 melanoma
[22] = system: SK-OV-3 ovarian
[23] = system: OVCAR-4 ovarian
[24] = system: SF-268 CNS
[25] = system: RXF 393 renal
[26] = system: 786-0 renal
[27] = system: NCI-H23 lung
[28] = system: A498 renal
[29] = system: COLO 205 colon
[30] = system: M14 melanoma
[31] = system: SW-620 colon
[32] = system: SK-MEL-2 melanoma
[33] = system: SNB-19 CNS
[34] = system: NCI-H226 lung
[35] = system: SF-295 CNS
[36] = system: DU-145 prostate
[37] = system: UO-31 renal
[38] = system: HCT-116 colon
[39] = system: T-47D breast
[40] = system: RPMI-8226 leukemia
[41] = system: SF-539 CNS
[42] = system: NCI-H522 lung
[43] = system: SR leukemia
[44] = system: NCI/ADR-RES ovarian
[45] = system: PC-3 prostate
[46] = system: CAKI-1 renal
[47] = system: K-562 leukemia
[48] = system: SK-MEL-5 melanoma
[49] = system: IGROV1 ovarian
[50] = system: OVCAR-3 ovarian
[51] = system: MALME-3M melanoma
[52] = system: HOP-62 NSCLC
[53] = system: OVCAR-8 ovarian
[54] = system: ACHN renal
[55] = system: LOX IMVI melanoma
[56] = system: A549 NSCLC
[57] = system: HCT-15 colon

Q: Which GI50 [1] does the source give for `CC(=O)N1CCN([C@H]2CCC[C@@H](NC(=O)c3cc4c(F)ccc(C)c4[nH]3)C2)CC1` here?
A: The GI50 was 13.5 µM.

Q: What about the TGI [1] of the same molecule?
A: The TGI was over 100 µM.

Q: What about the GI50 [2] of the same molecule?
A: Its GI50 is 21.6 µM.

Q: What about the TGI [2] of the same molecule?
A: Its TGI is over 100 µM.

Q: What about the GI50 [3] of the same molecule?
A: Its GI50 is 18.4 µM.

Q: What about the TGI [3] of the same molecule?
A: Its TGI is over 100 µM.

Q: What about the GI50 [4] of the same molecule?
A: The GI50 was 18.7 µM.

Q: What about the TGI [4] of the same molecule?
A: The TGI was over 100 µM.

Q: And the GI50 [5]?
A: Its GI50 is 62.5 µM.

Q: What about the TGI [5] of the same molecule?
A: Its TGI is over 100 µM.

Q: And the GI50 [6]?
A: The GI50 was 18.7 µM.

Q: What about the TGI [6] of the same molecule?
A: The TGI was over 100 µM.

Q: And the GI50 [7]?
A: Its GI50 is 24.6 µM.

Q: What about the TGI [7] of the same molecule?
A: The TGI was over 100 µM.

Q: And the GI50 [8]?
A: Its GI50 is 4.66 µM.

Q: And the TGI [8]?
A: Its TGI is 47.6 µM.

Q: What about the GI50 [9] of the same molecule?
A: The GI50 was 19.4 µM.

Q: And the TGI [9]?
A: Its TGI is over 100 µM.

Q: What about the GI50 [10] of the same molecule?
A: The GI50 was 44.3 µM.

Q: And the TGI [10]?
A: The TGI was over 100 µM.

Q: What about the GI50 [11] of the same molecule?
A: Its GI50 is 32.1 µM.

Q: And the TGI [11]?
A: Its TGI is over 100 µM.

Q: What about the GI50 [12] of the same molecule?
A: The GI50 was 22.3 µM.

Q: And the TGI [12]?
A: Its TGI is over 100 µM.

Q: And the GI50 [13]?
A: The GI50 was 18.3 µM.

Q: And the TGI [13]?
A: Its TGI is over 100 µM.

Q: What about the GI50 [14] of the same molecule?
A: Its GI50 is 16.7 µM.

Q: And the TGI [14]?
A: Its TGI is 71.6 µM.

Q: What about the GI50 [15] of the same molecule?
A: The GI50 was 21.9 µM.

Q: And the TGI [15]?
A: Its TGI is over 100 µM.

Q: What about the GI50 [16] of the same molecule?
A: Its GI50 is 39.9 µM.

Q: And the TGI [16]?
A: The TGI was over 100 µM.

Q: And the GI50 [17]?
A: Its GI50 is 10.7 µM.

Q: And the TGI [17]?
A: The TGI was over 100 µM.

Q: And the GI50 [18]?
A: The GI50 was 13.6 µM.

Q: And the TGI [18]?
A: The TGI was 27.8 µM.

Q: What about the GI50 [19] of the same molecule?
A: Its GI50 is 15.6 µM.

Q: And the TGI [19]?
A: The TGI was over 100 µM.

Q: And the GI50 [20]?
A: Its GI50 is 5.43 µM.

Q: What about the TGI [20] of the same molecule?
A: The TGI was 68.1 µM.

Q: What about the GI50 [21] of the same molecule?
A: Its GI50 is 13.5 µM.

Q: What about the TGI [21] of the same molecule?
A: Its TGI is 29 µM.

Q: And the GI50 [22]?
A: The GI50 was 37.2 µM.

Q: What about the TGI [22] of the same molecule?
A: The TGI was over 100 µM.

Q: What about the GI50 [23] of the same molecule?
A: The GI50 was 11.3 µM.

Q: What about the TGI [23] of the same molecule?
A: The TGI was over 100 µM.

Q: And the GI50 [24]?
A: The GI50 was 23 µM.

Q: What about the TGI [24] of the same molecule?
A: Its TGI is over 100 µM.

Q: And the GI50 [25]?
A: Its GI50 is 2.17 µM.

Q: And the TGI [25]?
A: The TGI was 9.61 µM.

Q: And the GI50 [26]?
A: Its GI50 is 36.6 µM.

Q: And the TGI [26]?
A: Its TGI is over 100 µM.

Q: What about the GI50 [27] of the same molecule?
A: The GI50 was 20.3 µM.

Q: What about the TGI [27] of the same molecule?
A: Its TGI is over 100 µM.

Q: And the GI50 [28]?
A: The GI50 was 14 µM.

Q: What about the TGI [28] of the same molecule?
A: The TGI was over 100 µM.

Q: What about the GI50 [29] of the same molecule?
A: Its GI50 is 24.5 µM.

Q: And the TGI [29]?
A: The TGI was over 100 µM.

Q: What about the GI50 [30] of the same molecule?
A: The GI50 was 15.3 µM.

Q: What about the TGI [30] of the same molecule?
A: The TGI was 34.3 µM.

Q: And the GI50 [31]?
A: The GI50 was 85.1 µM.

Q: What about the TGI [31] of the same molecule?
A: Its TGI is over 100 µM.

Q: What about the GI50 [32] of the same molecule?
A: The GI50 was 34.9 µM.

Q: What about the TGI [32] of the same molecule?
A: Its TGI is over 100 µM.

Q: What about the GI50 [33] of the same molecule?
A: Its GI50 is 33.3 µM.

Q: And the TGI [33]?
A: The TGI was over 100 µM.

Q: And the GI50 [34]?
A: The GI50 was 16.9 µM.

Q: And the TGI [34]?
A: The TGI was over 100 µM.

Q: What about the GI50 [35] of the same molecule?
A: The GI50 was 10.8 µM.

Q: And the TGI [35]?
A: The TGI was over 100 µM.

Q: What about the GI50 [36] of the same molecule?
A: The GI50 was 24.6 µM.

Q: And the TGI [36]?
A: The TGI was over 100 µM.

Q: And the GI50 [37]?
A: The GI50 was 1.78 µM.

Q: And the TGI [37]?
A: The TGI was 3.91 µM.

Q: And the GI50 [38]?
A: The GI50 was 27.5 µM.

Q: And the TGI [38]?
A: Its TGI is over 100 µM.

Q: What about the GI50 [39] of the same molecule?
A: Its GI50 is 25.2 µM.

Q: What about the TGI [39] of the same molecule?
A: The TGI was over 100 µM.

Q: What about the GI50 [40] of the same molecule?
A: The GI50 was 24.9 µM.

Q: What about the TGI [40] of the same molecule?
A: Its TGI is over 100 µM.

Q: And the GI50 [41]?
A: Its GI50 is 13.8 µM.

Q: And the TGI [41]?
A: The TGI was over 100 µM.

Q: And the GI50 [42]?
A: Its GI50 is 10.8 µM.

Q: What about the TGI [42] of the same molecule?
A: The TGI was over 100 µM.

Q: What about the GI50 [43] of the same molecule?
A: Its GI50 is 14 µM.

Q: And the TGI [43]?
A: The TGI was 81 µM.

Q: What about the GI50 [44] of the same molecule?
A: The GI50 was 69.9 µM.

Q: And the TGI [44]?
A: The TGI was over 100 µM.

Q: And the GI50 [45]?
A: Its GI50 is 26.1 µM.

Q: What about the TGI [45] of the same molecule?
A: The TGI was over 100 µM.

Q: And the GI50 [46]?
A: Its GI50 is 11.2 µM.

Q: And the TGI [46]?
A: Its TGI is over 100 µM.

Q: And the GI50 [47]?
A: The GI50 was 31.1 µM.

Q: What about the TGI [47] of the same molecule?
A: The TGI was over 100 µM.

Q: What about the GI50 [48] of the same molecule?
A: Its GI50 is 15.1 µM.

Q: What about the TGI [48] of the same molecule?
A: The TGI was 28.5 µM.

Q: And the GI50 [49]?
A: The GI50 was 4.83 µM.

Q: And the TGI [49]?
A: Its TGI is over 100 µM.

Q: And the GI50 [50]?
A: Its GI50 is 42.9 µM.

Q: What about the TGI [50] of the same molecule?
A: The TGI was over 100 µM.

Q: And the GI50 [51]?
A: Its GI50 is 10.1 µM.

Q: What about the TGI [51] of the same molecule?
A: Its TGI is 29.8 µM.

Q: What about the GI50 [52] of the same molecule?
A: Its GI50 is 15.3 µM.

Q: And the TGI [52]?
A: The TGI was over 100 µM.

Q: What about the GI50 [53] of the same molecule?
A: The GI50 was 46.5 µM.

Q: And the TGI [53]?
A: The TGI was over 100 µM.

Q: And the GI50 [54]?
A: The GI50 was 32.5 µM.

Q: And the TGI [54]?
A: Its TGI is over 100 µM.

Q: What about the GI50 [55] of the same molecule?
A: Its GI50 is 16.4 µM.

Q: What about the TGI [55] of the same molecule?
A: Its TGI is over 100 µM.

Q: What about the GI50 [56] of the same molecule?
A: The GI50 was 10.8 µM.

Q: What about the TGI [56] of the same molecule?
A: The TGI was over 100 µM.

Q: What about the GI50 [57] of the same molecule?
A: The GI50 was 19.9 µM.

Q: What about the TGI [57] of the same molecule?
A: Its TGI is over 100 µM.
